Earlier results in patent US20250312332A1, “TREATMENT OF MUSCLE FIBROSIS” (University of Newcastle upon Tyne, priority 2022, published 2025).
pEC50, pIC50, pKd, pKi: −log10 of the molar value. Structures can show the parent of a compound that is named as a salt. Where two headings read alike, the source gives them in different places.

Tests used:
ROCK1 = ROCK1 (Homo sapiens, UniProt Q13464); conditions: cited from earlier work
[1] = spontaneously hypertensive rat; cited from earlier work
Rho signaling = conditions: cited from earlier work
[2] = insulin-resistant mice; cited from earlier work
[3] = system: PC-3 prostate cancer cell; conditions: in vitro; cited from earlier work
MLCK = conditions: cited from earlier work; for pKi: read-out: Ki for MLCK / MLC-kinase
[4] = system: T47D and CAMA-1 breast cancer cells; conditions: T47D and CAMA-1 cells; cited from earlier work
PKA = conditions: cited from earlier work
CaM kinase II = conditions: cited from earlier work
ROCK2 = ROCK2 (Homo sapiens, UniProt O75116); conditions: cited from earlier work
[5] = system: myosin II light chain (MLC) phosphorylation induced by MRCKβ; conditions: in vitro; cited from earlier work
MRCKα = MRCKα (Homo sapiens, UniProt Q5VT25); conditions: cited from earlier work
rat aorta = conditions: cited from earlier work
PC-3 cell = conditions: read-out: IC50 for PC-3 cell migration; cited from earlier work
MKL1 expression = conditions: 25 μM; cited from earlier work
B16 melanoma [6] = conditions: cited from earlier work
B16 melanoma [7] = conditions: cited from earlier work; remark: listed apart in the source
RhoA = RhoA (Homo sapiens, UniProt P61586); conditions: read-out: Kd for RhoA (RhoA subfamily Rho GTPases); cited from earlier work
[8] = system: other Rho GTPases (such as Cdc42 or RhoA); conditions: cited from earlier work
Rac1 = Rac1 (Homo sapiens, UniProt P63000); conditions: cited from earlier work
B16BL6 and 4T1 cells = conditions: murine animal models; cited from earlier work
[9] = system: Cdc42 or Rac1, nor the GEF, LARG; conditions: cited from earlier work
ROCK [10] = conditions: read-out: Ki (ROCK / Rho kinase); cited from earlier work
PKC = conditions: cited from earlier work
neuronal cultures = conditions: cited from earlier work
PASMC = conditions: cited from earlier work
[11] = after transient middle cerebral artery occlusion; cited from earlier work
[12] = in vitro; cited from earlier work
ROCK [13] = conditions: read-out: Kds, binding to ROCK; cited from earlier work
[14] = system: ROCK-mediated phosphorylation of MYPTT696; conditions: thoracic aorta of spontaneously hypertensive rats; cited from earlier work
rat ROCK-2 = rat ROCK-2 (Rattus norvegicus, UniProt Q62868); conditions: cited from earlier work
[15] = 0.1%, 0.3%, and 0.5%, cited from earlier work
MDA-MB-231 cells = conditions: cited from earlier work
HMG-COA reductase = HMG-COA reductase (Homo sapiens, UniProt P04035); conditions: cited from earlier work
NIH 3T3 cells = conditions: 10-30 μM, 24 hours; cited from earlier work
[16] = molecular target: Leukemia-associated Rho guanine nucleotide exchange factor (LARG) (Homo sapiens, UniProt Q9NZN5); conditions: cited from earlier work
[17] = monkey eyes; cited from earlier work
iNOS gene expression = conditions: 10-100 μM; 18 hours; cited from earlier work
RAVSMC = conditions: LPS plus INF-y; 18 hours; read-out: IC50 for accumulation of nitrite in RAVSMC; cited from earlier work
RAW 264.7 = conditions: LPS plus INF-y; 18 hours; read-out: IC50 for accumulation of nitrite in RAW 264.7; cited from earlier work
MRCK = conditions: read-out: IC50 against MRCK; cited from earlier work
[18] = molecular target: cGMP-dependent protein kinase (PKG); conditions: cited from earlier work
granulocytes = conditions: 50 μM; for 15 min; cited from earlier work
Cdc42 = Cdc42 (Homo sapiens, UniProt P60953); conditions: cited from earlier work
[19] = system: Rab2, Rab7, H-Ras, Rac1, Rac 2 and RhoA wild-type; conditions: cited from earlier work

ROCK2, sequence (O75116 whole entry): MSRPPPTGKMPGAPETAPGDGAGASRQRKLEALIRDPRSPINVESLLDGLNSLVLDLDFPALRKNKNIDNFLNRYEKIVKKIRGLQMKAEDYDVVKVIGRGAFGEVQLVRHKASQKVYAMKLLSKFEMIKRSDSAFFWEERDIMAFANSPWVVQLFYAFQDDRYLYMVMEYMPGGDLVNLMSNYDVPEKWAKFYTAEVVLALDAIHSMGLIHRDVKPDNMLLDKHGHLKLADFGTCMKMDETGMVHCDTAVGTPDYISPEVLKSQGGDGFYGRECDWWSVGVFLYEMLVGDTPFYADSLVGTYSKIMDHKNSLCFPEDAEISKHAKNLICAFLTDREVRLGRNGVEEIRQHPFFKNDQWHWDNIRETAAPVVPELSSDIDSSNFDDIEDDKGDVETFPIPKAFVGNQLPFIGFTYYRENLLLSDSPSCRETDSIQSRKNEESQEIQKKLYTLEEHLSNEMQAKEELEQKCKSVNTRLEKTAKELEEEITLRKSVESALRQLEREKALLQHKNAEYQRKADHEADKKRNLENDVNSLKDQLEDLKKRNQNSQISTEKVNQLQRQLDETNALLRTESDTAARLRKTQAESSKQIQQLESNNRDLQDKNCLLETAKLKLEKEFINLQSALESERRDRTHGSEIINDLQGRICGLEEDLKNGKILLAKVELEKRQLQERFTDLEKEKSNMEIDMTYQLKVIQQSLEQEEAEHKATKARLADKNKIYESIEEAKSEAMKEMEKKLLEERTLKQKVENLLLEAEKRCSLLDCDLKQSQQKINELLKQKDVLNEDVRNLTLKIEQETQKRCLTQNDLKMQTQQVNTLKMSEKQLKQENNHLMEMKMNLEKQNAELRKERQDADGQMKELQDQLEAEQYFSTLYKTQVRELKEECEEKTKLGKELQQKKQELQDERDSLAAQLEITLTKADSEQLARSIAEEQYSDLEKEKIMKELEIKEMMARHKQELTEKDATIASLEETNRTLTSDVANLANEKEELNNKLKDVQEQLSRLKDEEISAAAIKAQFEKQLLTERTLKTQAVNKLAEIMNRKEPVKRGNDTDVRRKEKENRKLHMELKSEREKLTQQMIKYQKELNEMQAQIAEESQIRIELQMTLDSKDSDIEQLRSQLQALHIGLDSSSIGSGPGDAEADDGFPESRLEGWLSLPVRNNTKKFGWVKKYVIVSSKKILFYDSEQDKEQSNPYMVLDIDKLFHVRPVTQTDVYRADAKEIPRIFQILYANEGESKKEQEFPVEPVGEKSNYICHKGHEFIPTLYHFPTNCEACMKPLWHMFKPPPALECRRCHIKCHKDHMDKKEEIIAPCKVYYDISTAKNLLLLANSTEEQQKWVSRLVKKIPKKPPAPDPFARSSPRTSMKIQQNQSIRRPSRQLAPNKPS
ROCK1, sequence (Q13464 whole entry): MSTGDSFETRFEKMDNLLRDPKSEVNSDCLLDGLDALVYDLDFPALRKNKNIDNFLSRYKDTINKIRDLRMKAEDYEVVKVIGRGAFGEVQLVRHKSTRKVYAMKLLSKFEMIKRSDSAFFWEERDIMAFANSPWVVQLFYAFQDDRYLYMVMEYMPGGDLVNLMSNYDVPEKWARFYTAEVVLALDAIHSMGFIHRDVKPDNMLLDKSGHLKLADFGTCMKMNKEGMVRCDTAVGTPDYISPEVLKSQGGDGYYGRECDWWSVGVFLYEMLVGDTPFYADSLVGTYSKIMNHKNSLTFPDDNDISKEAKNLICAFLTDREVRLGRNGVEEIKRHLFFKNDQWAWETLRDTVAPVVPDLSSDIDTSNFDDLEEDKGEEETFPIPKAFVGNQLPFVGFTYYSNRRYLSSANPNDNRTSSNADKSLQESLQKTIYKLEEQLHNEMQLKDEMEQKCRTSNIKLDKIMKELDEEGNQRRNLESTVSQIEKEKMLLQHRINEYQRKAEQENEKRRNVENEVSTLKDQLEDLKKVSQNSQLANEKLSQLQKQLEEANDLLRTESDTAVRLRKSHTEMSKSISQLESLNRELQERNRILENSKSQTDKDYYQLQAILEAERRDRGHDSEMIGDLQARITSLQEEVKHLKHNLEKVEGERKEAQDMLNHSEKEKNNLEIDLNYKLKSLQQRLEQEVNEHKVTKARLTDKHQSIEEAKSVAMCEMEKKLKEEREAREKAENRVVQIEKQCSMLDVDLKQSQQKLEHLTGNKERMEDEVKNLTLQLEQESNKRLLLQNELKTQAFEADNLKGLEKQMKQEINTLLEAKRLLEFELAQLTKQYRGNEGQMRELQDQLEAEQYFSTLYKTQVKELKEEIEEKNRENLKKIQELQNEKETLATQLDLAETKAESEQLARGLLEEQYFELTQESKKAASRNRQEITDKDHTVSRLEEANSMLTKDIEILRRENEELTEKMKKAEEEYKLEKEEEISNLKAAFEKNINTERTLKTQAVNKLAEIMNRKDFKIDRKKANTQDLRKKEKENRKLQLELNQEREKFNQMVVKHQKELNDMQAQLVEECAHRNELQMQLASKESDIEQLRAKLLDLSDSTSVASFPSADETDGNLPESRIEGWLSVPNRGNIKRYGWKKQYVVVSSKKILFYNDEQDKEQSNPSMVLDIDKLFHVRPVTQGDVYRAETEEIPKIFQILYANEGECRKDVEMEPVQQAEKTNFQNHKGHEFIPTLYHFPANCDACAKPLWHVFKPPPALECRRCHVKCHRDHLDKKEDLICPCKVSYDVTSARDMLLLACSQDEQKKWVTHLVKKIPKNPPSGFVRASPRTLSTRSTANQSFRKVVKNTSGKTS
RhoA, sequence (P61586 whole entry): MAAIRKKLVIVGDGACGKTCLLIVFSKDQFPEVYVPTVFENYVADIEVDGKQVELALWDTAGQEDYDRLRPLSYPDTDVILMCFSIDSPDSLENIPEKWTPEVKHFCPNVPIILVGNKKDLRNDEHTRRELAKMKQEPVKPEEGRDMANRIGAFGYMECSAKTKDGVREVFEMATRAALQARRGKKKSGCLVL
MRCKα, sequence (Q5VT25 whole entry, species assumed): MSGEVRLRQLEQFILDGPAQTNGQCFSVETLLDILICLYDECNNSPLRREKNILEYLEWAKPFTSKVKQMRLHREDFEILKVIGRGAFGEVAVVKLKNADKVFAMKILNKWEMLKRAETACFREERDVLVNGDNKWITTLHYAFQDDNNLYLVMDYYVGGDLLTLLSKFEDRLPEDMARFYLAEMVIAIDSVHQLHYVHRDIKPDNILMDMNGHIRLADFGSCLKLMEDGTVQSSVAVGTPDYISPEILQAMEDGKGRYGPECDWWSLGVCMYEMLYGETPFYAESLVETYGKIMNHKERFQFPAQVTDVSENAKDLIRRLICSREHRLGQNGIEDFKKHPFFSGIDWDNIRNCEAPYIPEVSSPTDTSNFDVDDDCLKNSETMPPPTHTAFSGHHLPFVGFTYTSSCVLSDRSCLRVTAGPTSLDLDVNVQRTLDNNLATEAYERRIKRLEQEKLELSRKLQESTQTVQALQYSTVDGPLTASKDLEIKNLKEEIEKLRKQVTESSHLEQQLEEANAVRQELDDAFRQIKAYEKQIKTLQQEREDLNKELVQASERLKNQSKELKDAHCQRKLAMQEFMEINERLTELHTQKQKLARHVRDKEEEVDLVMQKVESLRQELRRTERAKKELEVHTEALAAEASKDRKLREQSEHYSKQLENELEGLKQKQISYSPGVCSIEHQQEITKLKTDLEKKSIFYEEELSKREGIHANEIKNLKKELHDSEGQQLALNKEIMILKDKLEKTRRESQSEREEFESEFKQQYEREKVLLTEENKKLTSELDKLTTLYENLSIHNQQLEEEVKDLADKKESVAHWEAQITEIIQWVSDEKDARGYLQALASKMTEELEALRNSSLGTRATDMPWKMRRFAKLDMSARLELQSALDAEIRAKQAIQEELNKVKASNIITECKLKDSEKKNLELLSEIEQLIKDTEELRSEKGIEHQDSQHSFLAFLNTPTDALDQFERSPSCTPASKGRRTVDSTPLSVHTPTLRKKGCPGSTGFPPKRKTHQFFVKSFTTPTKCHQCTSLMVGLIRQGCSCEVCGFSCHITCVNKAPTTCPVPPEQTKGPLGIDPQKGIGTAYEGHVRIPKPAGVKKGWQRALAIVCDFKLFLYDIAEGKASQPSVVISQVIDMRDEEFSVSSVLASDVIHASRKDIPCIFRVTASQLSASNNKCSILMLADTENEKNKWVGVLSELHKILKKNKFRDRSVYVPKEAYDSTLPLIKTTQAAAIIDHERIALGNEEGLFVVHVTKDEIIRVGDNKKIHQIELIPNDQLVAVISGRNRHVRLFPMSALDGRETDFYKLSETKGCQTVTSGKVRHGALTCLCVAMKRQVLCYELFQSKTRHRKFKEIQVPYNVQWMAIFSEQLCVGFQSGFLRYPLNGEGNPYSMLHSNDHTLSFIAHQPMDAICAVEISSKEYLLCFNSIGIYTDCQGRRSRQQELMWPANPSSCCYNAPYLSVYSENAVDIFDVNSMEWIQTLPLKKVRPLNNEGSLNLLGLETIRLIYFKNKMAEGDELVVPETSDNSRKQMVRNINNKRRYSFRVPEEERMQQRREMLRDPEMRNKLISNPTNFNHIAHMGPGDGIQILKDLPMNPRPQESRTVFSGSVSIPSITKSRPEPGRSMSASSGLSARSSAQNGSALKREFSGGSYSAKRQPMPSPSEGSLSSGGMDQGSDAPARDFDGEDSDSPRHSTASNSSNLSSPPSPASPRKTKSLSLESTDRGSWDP
Cdc42, sequence (P60953 whole entry): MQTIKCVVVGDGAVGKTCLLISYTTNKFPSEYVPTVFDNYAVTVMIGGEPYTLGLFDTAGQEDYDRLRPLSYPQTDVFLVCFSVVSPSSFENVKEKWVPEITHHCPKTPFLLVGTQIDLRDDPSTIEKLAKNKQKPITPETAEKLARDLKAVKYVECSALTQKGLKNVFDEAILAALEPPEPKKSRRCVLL

## CC1=C(C(=O)Nc2cc3cn[nH]c3cc2F)C(c2ccc(Cl)cc2F)N=C(c2ccnc(Cl)c2)N1 (stereo not shown) [GSK-25]
ROCK1
  pIC50: 8.15
[1]
  blood pressure: drop in blood pressure

## CC(ONC(=O)c1cc(C(F)(F)F)cc(C(F)(F)F)c1)C(=O)Nc1ccc(Cl)cc1 (stereo not shown) [CCG-1423]
Rho signaling
  pIC50: 5.82
[2]
  glucose uptake and tolerance: improved glucose uptake and tolerance
[3]
  spontaneous PC-3 cell invasion through a Matrigel matrix: selectively inhibited

## O=S(=O)(c1cccc2c(I)cccc12)N1CCCNCC1 [ML-07 hydrochloride]
MLCK; read-out: IC50 for MLCK
  pIC50: 6.52

## COc1ccc(CC(=O)Nc2nc3c(s2)CCc2ccccc2-3)cc1OC [ZINC00881524]
[4]
  levels of ROCK1: decreases levels of ROCK1

## myosin light chain kinase inhibitor peptide, sequence RKKYKYRRK (SEQ ID NO:1) (MLCK inhibitor peptide 18) [MLCK18]
MLCK; read-out: IC50 for MLCK
  pIC50: 7.30
PKA
  inhibition of PKA: without inhibiting PKA
CaM kinase II
  selectivity vs CaM kinase II: 4000 fold

## c1cc(-c2ncco2)cc(-c2nnc(Nc3ccc4[nH]ncc4c3)s2)c1 [ROCK2-IN-2]
ROCK2
  pIC50: > 6.00

## O=C(Nc1cn[nH]c1-c1ccccn1)c1nn(C2CCNCC2)cc1Cl [BDP5290]
ROCK1
  pIC50: 8.30
ROCK2
  pIC50: 7.30
[5]
  MLC phosphorylation induced by MRCKβ: completely inhibits
MRCKα
  pIC50: 8.00

## O=C(O)/C=C/c1cccc(Nc2cnc3ccccc3n2)c1 [HL07]
Rat aorta
  phenylephrine (PE)-induced contraction: inhibited

## N[C@H](CNc1nc(-c2ccncc2)nc2sc3c(c12)CCCC3)Cc1ccccc1 [CRT0066854]
ROCK2
  pIC50: 6.21

## O=C(Nc1ccc(Cl)cc1)C1CCCN(C(=O)c2cccc(-c3ccco3)c2)C1 (stereo not shown) [CCG-203971]
PC-3 cell
  pIC50: 5.38
MKL1 expression
  TGF-β-induced MKL1 expression: significantly represses

## C[C@@H](N)c1ccc(C(=O)Nc2ccncc2)cc1 [Wf-536, (+)-(R)-4-(1-aminoethyl)-N-(4-pyridyl)benzamide monohydrochloride]
B16 melanoma [6]
  in vivo pulmonary metastasis of B16 melanoma: effectively reduced
B16 melanoma [7]
  in vitro invasion of B16 melanoma: effectively reduced

## N[C@H](Cc1c[nH]c2ccccc12)C(=O)N/N=C/c1ccc2nccnc2c1 [Rhosin hydrochloride]
RhoA
  pKd: ~6.40

## Cc1ccc(NC(=O)c2cccc(OCc3c(C)noc3C)c2)cc1S(N)(=O)=O [Compound Z62954982]
[8]
  activity of other Rho GTPases: without affecting the activity
Rac1
  pIC50: 4.92
  times more effective than NSC23766: 4 times

## N[C@H](Cc1c[nH]c2ccccc12)C(=O)N/N=C/c1ccc2nccnc2c1 [Rhosin]
B16BL6 and 4T1 cells
  lung metastasis of B16BL6 and 4T1 cells: abrogates the lung metastasis
[9]
  interaction with Cdc42 or Rac1, or LARG: does not interact

## Cc1cncc2cccc(S(=O)(=O)N3CCCNC[C@@H]3C)c12 [Compound H-1152]
MLCK
  pKi: 5.00
ROCK [10]
  pKi: 8.80
PKC
  pKi: 5.03
Neuronal cultures; 10 μM, BMP4 and LIF cultures
  neurite length: increases neurite length
Neuronal cultures; 0.5-10 μM
  neuronal survival: no decreased neuronal survival

## CC(C)NC(=O)COc1cccc(-c2nc(Nc3ccc4[nH]ncc4c3)c3ccccc3n2)c1 [Belumosudil]
PASMC
  Tsp-1 and CTGF mRNA levels: significant down-regulations
[11]
  infarct volume: dose-dependently reduces infarct volume

## COc1c(B(O)O)cccc1-c1nc2ccc3[nH]ncc3c2c2c1CCC2 [HSD1590]
[12]
  migration: impressive attenuation in migration
ROCK [13]
  pKd: > 8.70

## O=c1[nH]ccc2cc(OC3CCNCC3)ccc12 [SAR407899]
ROCK2
  pIC50: 6.87
[14]
  ROCK-mediated phosphorylation of MYPTT696: inhibits
Rat ROCK-2
  pKi: 7.39

## CCCOC(=O)c1cccc(-c2cc(C(=O)Nc3ccncc3F)ccc2CN)c1 [Sovesudil]
ROCK1
  pIC50: 8.43
ROCK2
  pIC50: 8.64
[15]; ocular normotensive and acute hypertensive male rabbits
  Intraocular Pressure (IOP): effectively reduces Intraocular Pressure
[15]; rabbits
  hyperemia: without causing distinct hyperemia

## CCn1c(-c2nonc2N)nc2cnc(Oc3cccc(NC(=O)c4ccc(OCCN5CCOCC5)cc4)c3)cc21 [GSK269962A]
[1]
  blood pressure: dose-dependent reduction in blood pressure

## COCc1c(C(C)C)nc(C(C)C)c(/C=C/[C@@H](O)C[C@@H](O)CC(=O)O)c1-c1ccc(F)cc1 [Cerivastatin]
MDA-MB-231 cells
  proliferation and invasiveness of MDA-MB-231 cells: inhibits proliferation and invasiveness
HMG-COA reductase
  pKi: 8.89

## Cc1cccc(COc2cccc(/C=C3\C(=O)NN(c4ccccc4)C3=O)c2)c1 [Compound Y16]
NIH 3T3 cells
  RhoA-GTP formation induced by serum: inhibit RhoA-GTP formation
  serum or SDF-1α-induced phospho-MLC and phospho-FAK formation: efficiently inhibits
[16]
  pKd: 7.12

## Cc1ccc(C(=O)OCc2ccc([C@@H](CN)C(=O)Nc3ccc4cnccc4c3)cc2)c(C)c1 [AR-13324]
[17]
  intraocular pressure: reduced intraocular pressure

## Cc1c[nH]c2ncnc(N3CCC(CN)(C(=O)Nc4cccc(OC(=O)N(C)C)c4)CC3)c12 [LX7101]
PKA; read-out: IC50 for PKA
  pIC50: > 9.00

## Br.Oc1cc2c(cc1O)C(Cc1cccc3ccccc13)NCC2 (stereo not shown) [YS-49]
iNOS gene expression
  iNOS gene expression induced by LPS and/or cytokines: suppresses iNOS gene expression
RAVSMC
  pIC50: 4.66
RAW 264.7
  pIC50: 4.52

## COc1ccc2c(c1)C[C@H](C(=O)Nc1ccc(-c3cn[nH]c3)cc1OCCN(C)C)CO2 [Chroman 1]
MRCK
  pIC50: 6.82

## O=S(=O)(c1cccc2cnccc12)N1CCNCC1 [HA-100]
MLCK; read-out: IC50 for MLC-kinase
  pIC50: 3.62
MLCK
  pKi: 4.21
PKA; read-out: IC50 for cAMP-dependent protein kinase (PKA)
  pIC50: 5.10
[18]
  pIC50: 5.40
PKC
  pKi: 5.19
PKC; read-out: IC50 for protein kinase C (PKC)
  pIC50: 4.92

## NS(=O)(=O)c1ccc(N2N=C(c3ccccc3)CC2c2ccccc2)cc1 (stereo not shown) [MLS-573151]
granulocytes
  fluorescence intensities of phagocytosed beads or bacteria (phagocytosis efficiency): markedly reduced
Cdc42
  pEC50: 5.70
[19]
  activity against other GTPases family members: inactive
